From patent US6699459B2, “Methods of treating lung inflammation” (The Board of Regents of the University of Texas System, priority 2001, dated 2004)

How the values were obtained:
IRF-3 [1] = test: Western blot of nuclear IRF-3 in RSV-infected A549 cells; type: cell-based, human
Method: (§1) Western Immunoblot. Total cell lysates and cytoplasmic and nuclear proteins were prepared as previously described, fractionated by SDS-PAGE and transferred to PVDF membrane (20). Membranes were blocked with 5% albumin in TBS-Tween and incubated overnight with a rabbit polyclonal antibody to IRF-1, -3 and -7 (Santa Cruz Biotech, Santa Cruz, Calif.). For secondary detection, a horseradish-coupled anti-rabbit or anti-mouse antibody was used in the enhanced chemiluminescence assay (Amersham Pharmacia Biotec, Arlington Heights, Ill.).

IRF-3 [2] = test: Microaffinity isolation/Western blot for IRF-3 bound to RANTES ISRE; type: cell-based, human; conditions: nuclear extracts, RSV 12 hours
Method: Microaffinity isolation assay. Microaffinity purification of proteins binding to the RANTES ISRE was performed using a two-step biotinylated DNA-streptavidin capture assay (20). In this assay, duplex oligonucleotides are chemically synthesized containing 5′ biotin (Bt) on a flexible linker (Genosys, the Woodlands, TX). Four hundred micrograms of 12 hours-infected A549 cells nuclear extracts were incubated at 4° C. for 30 minutes with 50 pmoles of Bt ISRE, in the absence or presence of 10 fold molar excess of non-biotinylated ISRE wild type (WT) or mutated (MUT). The binding buffer contained 8 μg poly dI/dC (as nonspecific competitor) and 5% (v/v) glycerol, 12 mM HEPES, 80 mM NaCl, 5 mM DTT, 5 mM Mg2Cl, 0.5 mM EDTA. One hundred μl of a 50% slurry of pre-washed streptavidin-agarose beads was then added to the sample, and incubated at 4° C. for an additional 20 minutes with gentle rocking. Pellets were washed twice with 500 μl binding buffer, and the washed pellets were resuspended in 100 μl 1×SDS-PAGE buffer, boiled and fractionated on a 10% SDS-polyacrylamide gel. After electrophoresis separation, proteins were transferred to polyvinylidene difluoride (PVDF) membrane for Western blot analysis.
Western Immunoblot. Total cell lysates and cytoplasmic and nuclear proteins were prepared as previously described, fractionated by SDS-PAGE and transferred to PVDF membrane (20). […]

IRF-7 = test: Western blot of IRF-7 in total cell lysates of RSV-infected A549 cells; type: cell-based, human; conditions: whole cell extracts, RSV 12 hours, 400 μM
Method: as §1

IRF-3 mRNA = test: Northern blot of IRF-3 mRNA in RSV-infected A549 cells; type: cell-based, human; conditions: data not shown
Method: Northern Blot. Total RNA was extracted from control and infected A549 cells by the acid guanidium thiocyanate-phenol chloroform method (18). Twenty micrograms of RNA were fractionated on a 1.2% agarose-formaldehyde gel, transferred to nylon membranes and hybridized to a radiolabeled RANTES, IRF-1, -3 and -7 cDNAs, as previously described (19). Hybridization temperature for all probes was 55° C. After washing, membranes were exposed for autoradiography using Kodak XAR film at −70° C. using intensifying screens. After exposure, membranes were stripped and rehybridized with a β-actin probe.

human IRF-1 promoter = test: IRF-1 promoter luciferase reporter in A549 cells; type: cell-based
Method: Cell transfection. To investigate IRF-1 and -7 gene transcription, A549 cells were transiently transfected with the IRF-1 or -7 promoter, linked to the luciferase reporter gene. Logarithmically growing A549 cells were transfected in triplicate in 60 mm petri dishes by DEAE-Dextran, as previously described (20). Cells were incubated in 2 ml of HEPES buffered DMEM (10 mM Hepes, pH 7.4) containing 20 μl of 60 mg/ml DEAE-Dextran (Amersham Pharmacia Biotec, Arlington Heights, Ill.) premixed with 6 μg of either IRF-1 or -7 plasmids and 1 μg CMV-β galactosidase internal control plasmid. After 3 hours, media was removed and 0.5 ml of 10% (v/v) DMSO in PBS was added to the cells for 2 minutes. Cells were washed with PBS and cultured overnight in 10% FBS/DMEM. The next morning, cells were infected with RSV and cells were lysed at different times post-infectionto measure independently luciferase and galactosidase reporter activity, as previously described (20). Luciferase was normalized to the internal control galactosidase activity. All experiments were performed in duplicate or triplicate.

IRF-1 GAS = test: EMSA of IRF-1 GAS binding complexes, nuclear extracts of RSV-infected A549 cells; type: cell-based, human; conditions: RSV 6 hours, 400 μM
Method: (§2) Electrophoretic mobility shift assay (EMSA): Nuclear extracts of uninfected and infected A549 cells were prepared using hypotonic/nonionic detergent lysis, as previously described (20). Proteins were normalized by protein assay (Protein Reagent, Bio-Rad, Hercules, Calif.) and used to bind to a duplex oligonucleotide corresponding to the IRF-1 gamma interferon activated sequence (GAS) and IRF-7 ISRE, whose sequences are shown below.
(§3) DNA-binding reactions contained 10-15 μg nuclear proteins, 5% glycerol, 12 mM HEPES, 80 mM NaCl, 5 mM DTT, 5 mM Mg2Cl, 0.5 mM EDTA, 1 μg of poly dI-dC and 40,000 cpm of ^32P-labeled double-stranded oligonucleotide in a total volume of 20 μl. The nuclear proteins were incubated with the probe for 15 minutes at room temperature and then fractionated by 4% nondenaturing polyacrylamide gels (PAGE) in 0.5× TBE buffer (22 mM Tris-HCl, 22 mM boric acid, 0.25 MM EDTA, pH 8), at 120 volts. After electrophoretic separation, gels were dried and exposed for autoradiography using Kodak XAR film at −70° C. using intensifying screens. In the gel mobility supershift, commercial antibodies against specific transcription factors were added to the binding reactions and incubated on ice for one hour prior to fractionation on 6% PAGE.

IRF-7 ISRE = test: EMSA of IRF-7 ISRE binding complexes, nuclear extracts of RSV-infected A549 cells; type: cell-based, human; conditions: all time points, 400 μM
Method: as §2, §3

STAT-3 = test: Western blot of phosphorylated and total nuclear STAT-3 in RSV-infected A549 cells; type: cell-based, human; conditions: nuclear proteins, 400 μM
Method: Western Immunoblot. Nuclear proteins were prepared as previously described, fractionated by SDS-PAGE and transferred to PVDF membrane (20). Membranes were blocked with 5% albumin in TBS-Tween and incubated overnight with antibody recognizing the tyrosine phosphorylated form of STAT-1 and STAT-3 (Santa Cruz Biotech, Santa Cruz, Calif.). Membranes were stripped and reprobed with antibodies to STAT-1 and STAT-3 (Santa Cruz Biotech, Santa Cruz, Calif.). For secondary detection, a horseradish-coupled anti-rabbit or anti-mouse antibody was used (Santa Cruz Biotech, Santa Cruz, Calif.) in the enhanced chemiluminescence assay (Amersham Life Science, Arlington Heights, Ill.).

Question: For `COc1ccc(O)c(C(C)(C)C)c1` [BHA, butylated hydroxyanisol], which “the other RSV-inducible nuclear form of IRF-3” value (IRF-3 [1]) is on record?
Answer: not affected

Question: What about the “IRF-3 binding to RANTES ISRE” value (IRF-3 [2]) of the same compound?
Answer: almost completely abolished

Question: And the “RSV-induced IRF-7 protein synthesis” value (IRF-7)?
Answer: almost completely abolished

Question: What about the “IRF-3 mRNA level” value (IRF-3 mRNA) of the same compound?
Answer: unaffected

Question: What about the “basal level of transcription (IRF-1 promoter)” value (human IRF-1 promoter; A549 cells) of the same compound?
Answer: did not affect

Question: What about the “RSV-induced luciferase activity (IRF-1 promoter)” value (human IRF-1 promoter; RSV 12 hours, 400 μM) of the same compound?
Answer: completely abolished

Question: And the “RSV-induced STAT binding to the IRF-1 GAS” value (IRF-1 GAS)?
Answer: completely abolished

Question: And the “binding of the RSV-inducible complexes to the IRF-7 ISRE probe” value (IRF-7 ISRE)?
Answer: greatly reduced

Question: And the “RSV-induced STAT-3 nuclear translocation” value (STAT-3)?
Answer: completely inhibited

Question: And the “RSV-induced STAT-3 phosphorylation” value (STAT-3)?
Answer: completely abolished
